# Test system: T1, potato leaves peroxidase (PLPOD)
# T1 construct: gene POD; native enzyme from mature leaves (Nile Delta, Egypt); CM-cellulose and Sephacryl S-300; 64 kDa by gel filtration; 3 activity bands ~40-65 kDa on SDS-PAGE
# Experiment: guaiacol oxidation at […] nm, Lineweaver-Burk plot
# Assay type: biochemical, Solanum tuberosum
# Conditions: co-substrate H2O2; sodium acetate buffer pH 5.6 (general assay); mixture of isoenzymes; discussion b65 prints 0.066 mM
compound,measurement,value
COc1ccccc1O [guaiacol],Km,67 µM

# Reference: PMC12516557, “Isolation and characterization of peroxidase from potato leaves Solanum tuberosum: Application in glucose diagnostic kit” (Journal of Genetic Engineering & Biotechnology, 2025)
